{"source": "patent US20100203110A1", "about": "“Therapeutics for Cancer Using 3-Bromopyruvate and Other Selective Inhibitors of ATP Production” (The Johns Hopkins University, priority 2006, published 2010)", "key": {"[1]": {"system": "AS-30D hepatoma cells", "assay": "Killing of AS-30D hepatoma cells (trypan blue)", "assay_type": "cell-based, rat", "settings": "5 mM, 12 h", "experimental": "AS-30D hepatoma cells grown in the peritoneal cavity of Sprague Dawley female rats (see Materials) were adapted to grow in tissue culture in Dulbecco's modified Eagle's medium containing 10% fetal bovine serum. Cells were maintained at 37° C. in a humidified atmosphere containing 5% CO2, and counted in a Neubauer chamber after trypan blue dye addition (cell/dye volume=1/1) by visualization under a Nikon inverted microscope.\nThe studies described above using the VX2 tumor model for liver cancer predict that 2DOG and 3BrPA may have the capacity to kill hepatoma cells expressing the high glycolytic/high hexokinase phenotype. […] Cell killing was assessed in these experiments by counting those cells in which trypan blue had entered."}, "[2]": {"system": "Sk-Hep1", "assay": "ATP levels after treatment, Sk-Hep1", "assay_type": "cell-based", "settings": "0.1, 0.2, 0.3 mM for 1 and 3 hours", "experimental": "ATP levels were measured in various cell lines, e.g., HepG2, Sk-Hep1, and Vx-2 after 3-bromopyruvate treatment. In each case, cells were treated with increasing concentration of 3-bromopyruvate (0.1 mM, 0.2 mM, and 0.3 mM) for 1 and 3 hours before measuring ATP levels in the cell. FIGS. 5 (A-C) show the ATP depletion observed following 3-bromopyruvate treatment in HepG2, Sk-Hep1, and Vx-2 cell lines, respectively."}, "[3]": {"system": "liver implanted VX2 tumors", "assay": "Single direct intraarterial bolus injection into liver implanted VX2 tumors, histology", "assay_type": "in vivo, rabbit", "source_text": "The rabbit VX2 tumor was selected for implantation in the liver because of the similarities of its blood supply to that of human hepatomas. Other attributes of this tumor include rapid tumor growth, development of a sizable tumor that can be readily identified by x-ray imaging (fluoroscopy), and a biochemical phenotype characteristic of advanced stage tumors, i.e., high glycolysis and elevated levels of mitochondrial bound hexokinase. In addition, the rabbit is large enough that selective manipulation of catheters in the hepatic artery from the common femoral artery for delivery of agents is possible. Adult New Zealand white rabbits (32 total, Robinson Services, Inc.) weighing 3.5-4.2 kg were used. Studies with these animals were approved by the Johns Hopkins University Animal Care and Use Committee and carried out according to their guidelines. For successful implantation of the VX2 tumor into the liver, it was first grown for 2 weeks on the hind leg of a carrier rabbit. Each carrier rabbit was used to supply tumor cells for implantation into the left lobe of the liver of 2 separate rabbits. All animals, carriers and recipients, were anesthetized with a mixture of acepromazine (2.5 mg/kg) and ketamine hydrochloride (44 mg/kg) administered intramuscularly. Intravenous access was gained via a marginal ear vein and sodium pentothal was given intravenously to maintain anesthesia. The VX2 tumor was then excised from the carrier rabbit and placed in Hanks solution. Chunks of the tumor were minced in the same solution. Then, the abdomens of the recipient rabbits were shaved and prepped with betadine after which a midline subxyphoid incision was made. The anterior surface of the liver was exposed and tumor cells (0.1-0.2 ml) from the minced donor tumor were directly implanted onto the left lobe of the liver using the outer cannula of a 21-gauge angiocatheter. This method allows the growth of a single solitary, well-demarcated tumor in the liver of each recipient rabbit. The abdomen was closed in 2 layers. Proper aseptic technique was rigorously observed during each implantation. After surgery, animals were returned to their cages, kept warm with blankets, and monitored in the animal laboratory under the direct supervision of a physician or a technician until they recovered from anesthesia. […] The tumors were allowed to grow for another 14 days at which time they reached an ellipsoidal shape with dimension of approximately 1.5×1.8×2.5 cm.\nThe solutions of 3-bromopyruvate (3-BrPA, Sigma Chemical Co., St. Louis, Mo.) were prepared in phosphate-buffered saline (PBS). After adjusting the pH to 7.0 with NaOH the solutions were sterilized via Millipore's Millexâ GV 0.22 mm filter unit and used immediately. Freshly made solutions were used in all studies reported here.\nAdministration of anesthesia, intravenous access and sodium pentothal anesthesia were carried out as described in Example 12. Transcatheter hepatic artery injection of 3-BrPA was performed under fluoroscopy. The animals were brought to the angiography suite and intubated using a size 3.0 mm endotracheal tube (Mallinkrodt Medical, St. Louis, Mo.) but not ventilated. Surgical cut-down was performed to gain access into the right common femoral artery, after which a 3 French sheath (Cook Inc., Bloomington, Ind.) was placed. A specially manufactured 2 French catheter with a tip in the shape of a hockey-stick (JB1 catheter, Cook Inc., Bloomington, Ind.) was manipulated into the celiac axis after which a celiac arteriogram was performed in order to delineate the blood supply to the liver and confirm the location of the tumor. The tumor could readily be visualized as a region of hypervascular blush located on the left side of the liver near the gastric fundus. The left hepatic artery, which usually provides most of the blood flow to the tumor, was selectively catheterized via the common hepatic artery. […]"}, "[4]": {"system": "VX2 tumor", "assay": "Longitudinal survival studies in the VX2 rabbit model", "assay_type": "in vivo", "source_text": "In a longitudinal study to investigate the effect of 3-bromopyruvate treatment in the VX2 rabbit model, it was observed that although the treated rabbits lived longer than the untreated ones (statistically significant), the treated rabbits were not cured of their tumors and died within weeks of treatment of massive tumor growth. The extremely aggressive nature of the VX2 tumor was not stopped by the treatment and the tumor re-grew despite the high initial percentage of cancer cell death. Further studies were thus needed to determine the optimal dose and method of infusion of 3-bromopyruvate to attain significant long-term survival, complete eradication of the tumor.\nVX2 tumors are extremely aggressive and are rendered more aggressive and difficult to treat by the passage of this tumor from generation to generation (>100) in the thigh of a rabbit making each generation more virulent than the last. […] As described herein continuous intraarterial infusion of 1.7 mM 3-bromopyruvate is an effective and potent therapy for treating liver cancer."}, "[5]": {"settings": "single intraarterial injection, 4 days"}}, "note": "Entries after “also recorded” stand apart in the source; their conditions may differ.", "data": [{"molecule": "O=C(O)C(=O)CBr", "note": "[3-bromopyruvate]", "values": [{"measurement": "cell killing", "setting": "[1]", "value": "all cells"}, {"measurement": "ATP levels", "setting": "[2]", "value": "ATP depletion"}, {"measurement": "damage to 9 major tissues", "setting": "[3]; 4 days after single intraarterial injection", "value": "In no case was there evidence for damage"}, {"measurement": "damage to portal veins, sinusoids, bile ducts and arteriolar complexes", "setting": "[3]; much higher concentrations (5 mM), intraarterial", "value": "only apparent damage occurring occasionally in the peribiliary arteriolar complexes"}, {"measurement": "necrosis (non-viable cells) in tumor sections outside the central core", "setting": "[3]; single IA bolus 25 ml 0.5 mM, 4 days", "value": "~100", "unit": "%"}, {"measurement": "total number of viable cells in liver implanted tumors, lowest reached", "setting": "[3]; single injection", "value": 10, "unit": "%"}, {"measurement": "maximal number of non-viable cells observed in any one experiment", "setting": "[3]; single intraarterial injection", "value": 90, "unit": "%"}, {"measurement": "total number of non-viable cells in the tumor population", "setting": "[3]; [5]", "value": "84±5", "unit": "%"}, {"measurement": "viable cells in the entire tumor population", "setting": "[3]; [5]", "value": "16±5", "unit": "%"}, {"measurement": "viability / damage of surrounding liver tissue", "setting": "[3]; single intraarterial injection, 4 days, listed as 3-BrPA", "value": "no damage; also recorded: remained completely viable"}, {"measurement": "survival versus untreated rabbits", "setting": "[4]; VX2 rabbit model, not cured, tumor re-grew", "value": "lived longer"}, {"measurement": "delay of tumor progression versus saline (IA) controls", "setting": "[4]; animals with 100% tumor kill", "value": 75, "unit": "%"}]}]}
